System: S. aureus 6
Assay: In vitro antimicrobial activity (two-fold agar-plate dilution method)
Type: cell-based
Conditions: Staphylococcus aureus, heart infusion agar (HI-agar), 10^6 viable cells per ml, 37° C., 20 hours, read-out: MIC (minimal inhibitory concentration)
Protocol: In vitro Antimicrobial Activity was determined by the two-fold agar-plate dilution method as described below.
One loopful of an overnight culture of a test strain in Trypticase-soy broth (10^6 viable cells per ml) was streaked on heart infusion agar (HI-agar) containing graded concentrations of the test compound, and the minimal inhibitory concentration (MIC) was expressed in terms of μg/ml after incubation at 37° C. for 20 hours.

MIC: ≤ 0.025 µg/mL
Structure (SMILES): C[C@@H](O)[C@H]1C(=O)N2C(C(=O)O)=C(C3CN=CNC3)C[C@H]12 (stereo partly drawn) [Example 1, [5R,6S)-6-[(R)-1-hydroxyethyl]-3-[3,4,5,6-tetrahydropyrimidin-5-yl]-7-oxo-1-azabicyclo[3.2.0]hept-2-ene-2-carboxylic acid]

— patent US5286721A, “1-azabicyclo[3.2.0]hept-2-ene-2-carboxylic acid compounds” (Fujisawa Pharmaceutical Co., Ltd., priority 1990, dated 1994)
